Reference: patent US20210078972A1, “QUINOLINE OR QUINAZOLINE COMPOUND AND APPLICATION THEREOF” (HAIHE BIOPHARMA CO., LTD., priority 2018, published 2021)

Key:
Format in all cases: in vitro ADME
Conditions in all cases: 180 min
[1] = test system: Mixed primary male CD-1 mouse hepatocytes; assay: Metabolism in mouse hepatocytes, UPLC-UV/Q-TOF MS
Experimental: (§1) In this example, a UPLC-UV/Q-TOF MS method was used to evaluate the differences in the metabolic processes of TL134 in hepatocytes of five species of human, monkey, canine, rat, and mouse. It provides a reference for the selection of preclinical pharmacokinetics and studies on animal species safety evaluation.
(§2) The total volume of each incubation sample was 100 μL, the medium was WME medium (pH 7.4), and the incubation sample included hepatocytes with a cell density of 1.0×10^6 cells/mL and TL134 with a final concentration of 3.0 μM; the negative control sample was incubated with thermal-inactivated mixed hepatocytes (without cell counting) of five species of animals and TL134, and the buffer control sample was incubated with WME medium and TL134. All samples were incubated at 37° C. for 180 min, and then 100 μL of ice-cold acetonitrile was added to stop the reaction. The samples were stored at −70° C. for ready to be tested, and all incubation samples were double samples.
(§3) Triple TOF 5600′ quadrupole-time-of-flight tandem mass spectrometer (Q-TOF MS), equipped with electrospray ionization source (ESI source) and CDS automatic calibration system, AB SCIEX Company, USA; Acquity UPLC liquid chromatography system, including binary infusion pump, autosampler, column oven, degasser and TUV ultraviolet detector, Waters Company, USA. […]

[2] = test system: Mixed primary human hepatocytes; assay: Metabolism in human hepatocytes, UPLC-UV/Q-TOF MS
Experimental: as §1, §2, §3

[3] = test system: Mixed primary male SD rat hepatocytes; assay: Metabolism in rat hepatocytes, UPLC-UV/Q-TOF MS
Experimental: as §1, §2, §3

prototype drug metabolized, judging from the UV chromatographic peak areas [1]: ~3.0% | prototype drug metabolized, judging from the UV chromatographic peak areas [2]: approximately 17.8% | prototype drug metabolized, judging from the UV chromatographic peak areas [3]: ~19.8%
Compound: COc1cc2c(Oc3ccc(NC(=O)c4c(C)n(C)c5ccc(OC(F)(F)F)cc5c4=O)cc3F)ncnc2cc1OCCCN1CCOCC1 [TL-134, N-(3-fluoro-4-((6-methoxy-7-(3-morpholinopropoxy)quinazolin-4-yl)oxy)phenyl)-1,2-dim ethyl-4-oxo-6-(trifluoromethoxy)-1,4-dihydroquinoline-3-carboxamide]
